Measured values as given in ChEMBL document CHEMBL1124125, “6-(Alkylamino)-3-aryl-1,2,4-triazolo[3,4-a]phthalazines. A new class of benzodiazepine receptor ligands” (J Med Chem, 1988).

What was measured:
[1] = Lethal dose when given intraperitoneally in mice; assay type: toxicity, organism-based; details: mouse, in vivo, ip
[2] = target: T1, GABA-A receptor; anion channel (Rattus norvegicus) (UniProt O09028+P15431+P18506+P18508+P19969+P20236+P23574+P23576+P28471+P28473+P30191+P62813+P63079+P63138+Q91ZM7+Q9ES14); assay: Relative inhibition of [3H]diazepam binding to GABA-A receptor of rat forebrain in the presence and absence of GABA(10e-4M)
[3] = target: GABA-A receptor; anion channel; assay: Inhibition of [3H]diazepam binding to GABA-A central benzodiazepine receptor of rat brain homogenate
Mus musculus [4] = assay: Dose that prevented tonic extensor seizures and death in 50% of the mice.(ip); assay type: functional
[5] = target: T1, GABA-A receptor; anion channel (Rattus norvegicus); assay: GABA ratio (IC50/IC50 in the presence of 10e-4 GABA).; assay type: protein-complex assay
Mus musculus [6] = assay: Inhibition of Anti-pentylenetetrazole-induced convulsions in mice following i.p. administration.; assay type: functional; details: ip
Mus musculus [7] = assay: Antagonism of Diazepam muscle relaxant effect by compound (10 mg/kg, ip) was measured as the ratio of fallen/treated mice.; assay type: functional
Mus musculus [8] = assay: Antagonism of Diazepam muscle relaxant effect by compound (30 mg/kg, ip) was measured as the ratio of fallen/treated mice.; assay type: functional
Rattus norvegicus = assay: Minimal effective dose (MED, ip) that significantly increased the number of shocks (anticonflict); assay type: functional; details: read-out: MED

Row | Compound | LD50 [1] | Ratio [2] | Ki [3] | ED50 (Mus musculus [4]) | Ratio [5] | ED50 (Mus musculus [6]) | Fallen/treated (Mus musculus [7]) | Fallen/treated (Mus musculus [8]) | minimal effective dose (Rattus norvegicus)
1 | CNc1nn2c(-c3ccccc3)nnc2c2ccccc12 | 300 mg/kg | 1 | 46.3 nM | > 60 mg/kg | – | – | – | – | –
2 | CC(=O)Nc1ccc(-c2nnc3c4ccccc4c(N4CCCC4)nn23)cc1 | 600 mg/kg | – | 36 nM | – | 1.1 | ≥ 100 mg/kg | – | – | –
3 | CN(C)c1nn2c(-c3ccccc3)nnc2c2ccccc12 | 400 mg/kg | 1.1 | 20.8 nM | > 75 mg/kg | – | – | 5 | 2 | –
4 | COc1ccc(-c2nnc3c4ccccc4c(N4CCCC4)nn23)cc1OC | 500 mg/kg | – | > 3000 nM | > 100 mg/kg | – | – | – | – | –
5 | N#Cc1ccc(-c2nnc3c4ccccc4c(N4CCCC4)nn23)cc1 | 600 mg/kg | – | 102 nM | – | 1.1 | ≥ 100 mg/kg | – | – | –
6 | FC(F)(F)c1cccc(-c2nnc3c4ccccc4c(N4CCCC4)nn23)c1 | 600 mg/kg | – | > 3000 nM | – | – | ≥ 100 mg/kg | – | – | –
7 | CC(C)Nc1nn2c(-c3ccccc3)nnc2c2ccccc12 | 400 mg/kg | – | 306 nM | > 75 mg/kg | – | – | – | – | –
8 | COCCN(CCOC)c1nn2c(-c3ccc(C)cc3)nnc2c2ccccc12 | 400 mg/kg | – | 44 nM | – | 1.9 | 20.4 mg/kg | – | – | 10 mg/kg
9 | COCCN(CCOC)c1nn2c(-c3ccccc3)nnc2c2ccccc12 | 200 mg/kg | 1.6 | 66 nM | 34.2 mg/kg | – | – | – | – | 15 mg/kg
10 | CCCCNc1nn2c(-c3ccccc3)nnc2c2ccccc12 | 600 mg/kg | – | 243 nM | – | – | ≥ 100 mg/kg | – | – | –
11 | COCCN(CCOC)c1nn2c(-c3ccc(OC)c(C)c3)nnc2c2ccccc12 | 400 mg/kg | – | 1820 nM | > 100 mg/kg | – | – | – | – | –
12 | Brc1ccccc1-c1nnc2c3ccccc3c(N3CCCC3)nn12 | 600 mg/kg | – | 760 nM | > 100 mg/kg | – | – | – | – | –
13 | COc1ccc(-c2nnc3c4ccccc4c(N(C)CC(C)O)nn23)cc1 (stereo unspecified) | 300 mg/kg | – | 17 nM | 9.8 mg/kg | 1.4 | – | – | – | 10 mg/kg
14 | COCCNc1nn2c(-c3ccc(OC)cc3)nnc2c2ccccc12 | 200 mg/kg | – | 5.4 nM | – | 1.1 | ≥ 50 mg/kg | – | – | –
15 | CCCCCOc1ccc(-c2nnc3c4ccccc4c(N4CCCC4)nn23)cc1OC | 200 mg/kg | – | > 3000 nM | > 50 mg/kg | – | – | – | – | –
16 | COCCN(CCOC)c1nn2c(-c3cccc(C)c3)nnc2c2ccccc12 | 300 mg/kg | – | 181 nM | > 100 mg/kg | – | – | – | – | –
17 | COc1cc(-c2nnc3c4ccccc4c(N4CCCC4)nn23)cc(Br)c1OC | 600 mg/kg | – | > 3000 nM | > 100 mg/kg | – | – | – | – | –
18 | O=C(O)c1ccc(-c2nnc3c4ccccc4c(N4CCCC4)nn23)cc1 | 400 mg/kg | – | > 3000 nM | > 75 mg/kg | – | – | – | – | –
19 | CN1CCN(c2nn3c(-c4ccccc4)nnc3c3ccccc23)CC1 | 300 mg/kg | – | 37.7 nM | > 50 mg/kg | 0.9 | – | – | – | –
20 | c1ccc(-c2nnc3c4ccccc4c(N4CCCC4)nn23)cc1 | 400 mg/kg | – | 15.6 nM | > 75 mg/kg | 1.1 | – | 4 | 2 | –
21 | CCN(C)c1nn2c(-c3ccccc3)nnc2c2ccccc12 | 300 mg/kg | – | 14.4 nM | – | 1.1 | ≥ 50 mg/kg | – | – | –
22 | NC(=O)c1ccc(-c2nnc3c4ccccc4c(N4CCCC4)nn23)cc1 | 200 mg/kg | – | 113 nM | – | 1.1 | ≥ 50 mg/kg | – | – | –

Row | Compound | LD50 [1] | Ratio [2] | Ki [3] | ED50 (Mus musculus [4]) | Ratio [5] | ED50 (Mus musculus [6]) | Fallen/treated (Mus musculus [7]) | Fallen/treated (Mus musculus [8]) | minimal effective dose (Rattus norvegicus)
23 | CCOc1cc(OCC)c(-c2nnc3c4ccccc4c(N4CCCC4)nn23)cc1OCC | 300 mg/kg | – | > 3000 nM | > 50 mg/kg | – | – | – | – | –
24 | COCCN(CCOC)c1nn2c(-c3cccc(Cl)c3)nnc2c2ccccc12 | 600 mg/kg | – | 307 nM | – | – | ≥ 100 mg/kg | – | – | –
25 | c1ccc(-c2nnc3c4ccccc4c(N4CCOCC4)nn23)cc1 | 300 mg/kg | – | 14 nM | – | 0.95 | ≥ 100 mg/kg | – | – | –
26 | c1ccc(-c2ccc(-c3nnc4c5ccccc5c(N5CCCC5)nn34)cc2)cc1 | 400 mg/kg | – | > 3000 nM | > 75 mg/kg | – | – | – | – | –
27 | COCCN(CCOC)c1nn2c(-c3ccc(F)cc3)nnc2c2ccccc12 | 600 mg/kg | – | 20 nM | – | 1.5 | 60.1 mg/kg | – | – | –
28 | CCOc1c(Br)cc(Br)cc1-c1nnc2c3ccccc3c(N3CCCC3)nn12 | 600 mg/kg | – | > 3000 nM | > 100 mg/kg | – | – | – | – | –
29 | CC(C)(C)Nc1nn2c(-c3ccccc3)nnc2c2ccccc12 | 300 mg/kg | – | 565 nM | – | – | ≥ 50 mg/kg | – | – | –
30 | COCCN(CCOC)c1nn2c(-c3ccc(OC(C)C)cc3)nnc2c2ccccc12 | 600 mg/kg | – | 142 nM | 20.7 mg/kg | 1.8 | – | – | – | 10 mg/kg
31 | Nc1nn2c(-c3ccccc3)nnc2c2ccccc12 | 600 mg/kg | – | 243 nM | – | – | ≥ 100 mg/kg | – | – | –
32 | CN(C)c1ccc(-c2nnc3c4ccccc4c(N4CCCC4)nn23)c(Cl)c1 | 600 mg/kg | – | 393 nM | > 100 mg/kg | – | – | – | – | –
33 | O=[N+]([O-])c1cc(-c2nnc3c4ccccc4c(N4CCCC4)nn23)ccc1Cl | 200 mg/kg | – | 908 nM | > 50 mg/kg | – | – | – | – | –
34 | COCCN(CCOC)c1nn2c(-c3ccc(Cl)cc3)nnc2c2ccccc12 | 600 mg/kg | – | 17 nM | 60.1 mg/kg | 1.3 | – | – | – | –
35 | Oc1ccc(-c2nnc3c4ccccc4c(N4CCCC4)nn23)cc1 | 600 mg/kg | – | 11 nM | > 100 mg/kg | 1.1 | – | – | – | –
36 | COCCN(CCOC)c1nn2c(-c3ccc(N(C)C)cc3)nnc2c2ccccc12 | 200 mg/kg | – | 2650 nM | – | – | 20 mg/kg | – | – | –
37 | Cc1ccc(-c2nnc3c4ccccc4c(N4CCCC4)nn23)cc1C | 300 mg/kg | – | 1970 nM | > 50 mg/kg | – | – | – | – | –
38 | c1ccc(-c2nnc3c4ccccc4c(N4CCCCC4)nn23)cc1 | 600 mg/kg | – | 16 nM | – | 1 | ≥ 100 mg/kg | – | – | –
39 | CN(C)c1ccc(-c2nnc3c4ccccc4c(N4CCCC4)nn23)cc1 | 300 mg/kg | – | 1720 nM | – | – | ≥ 75 mg/kg | – | – | –
40 | c1ccc(CNc2nn3c(-c4ccccc4)nnc3c3ccccc23)cc1 | 400 mg/kg | – | 243 nM | > 75 mg/kg | – | – | – | – | –
41 | CCNc1nn2c(-c3ccccc3)nnc2c2ccccc12 | 200 mg/kg | 0.9 | 37.6 nM | > 50 mg/kg | – | – | – | – | –
42 | COc1cc(OC)c(-c2nnc3c4ccccc4c(N4CCCC4)nn23)cc1OC | 300 mg/kg | – | 1930 nM | > 50 mg/kg | – | – | – | – | –
43 | COCCN(CCOC)c1nn2c(-c3ccc(O)cc3)nnc2c2ccccc12 | 600 mg/kg | – | 4.1 nM | > 50 mg/kg | 1 | – | – | – | –
44 | CCN(CC)c1nn2c(-c3ccccc3)nnc2c2ccccc12 | 600 mg/kg | 0.9 | 41 nM | > 100 mg/kg | – | – | – | – | –
